Assays:
[1] = tested on: pp59Lyn and Gce1 / caveolin-1 in hcDIGs of rat adipocytes; assay: Dissociation of pp59Lyn and Gce1 from caveolin-1; type: cell-based; conditions: Adipocyte, FIG. 6 Panel B, read-out: IC50 for abrogation of losses from caveolin-1 immunoprecipitates
Description: Solubilized DIGs (see above, 5-20 μg protein) were precleared by incubation with protein A/G-Sepharose and subsequent centrifugation (10,000×g, 5 min). The supernatant was incubated with anti-caveolin-1 antibodies (1:1000) preadsorbed on protein A/G-Sepharose in 1 ml of 10 mM Tris/HCl (pH 7.4), 150 mM NaCl, 1% TX-100 for 1 h at 4° C. The immune complexes were washed twice with the same buffer and then twice with buffer lacking TX-100 and finally subjected to SDS-PAGE performed in the absence of β-mercaptoethanol. The recovery of immunoprecipitated caveolin was normalized by homologous immunoblotting with anti-caveolin antibodies of the same blot following stripping of the membrane.
Next we investigated the putative causal relationship between dissociation from caveolin/activation and stimulus-dependent lipolytic cleavage of GPI-proteins in rat adipocytes by inhibiting GPI-PLC and subsequent analysis of the interaction with caveolin-1 of Gce1 and pp59^Lyn as well as kinase activity of the latter (FIG. 6). […] This potency is similar to GPI-PLC inhibition by GPI-2350 in intact adipocytes (FIG. 3). […]

bovine AChE = biological target: T1, bovine AChE (Bos taurus, UniProt P23795); assay: AChE activity; type: biochemical; conditions: 50 μM
T1 construct: solubilized and partially purified bovine erythrocyte AChE; from tissue; host or cells: bovine erythrocytes
Description: Electroporation was performed as described in “Müller, G. et al., (2000) Mol. Cell. Biol. 20: 4708-4723”. Lipolysis was determined as release of glycerol or fluorescent NBD-FA from prelabeled and isoproterenol-stimulated adipocytes as described in “Müller, G. et al., (2003) Biochimie 85: 1245-1256”. Gce1 was detected by photolabeling of solubilized plasma membranes or hc/lcDIGs (10-50 μg protein) with 8-N3—[^32P]cAMP and subsequent phosphorimaging as described in “Müller, G. et al., (1994) Biochemistry 33: 12149-12159”. 5′-Nuc, aP and AChE activities were measured according to “Eliakim, R. et al., (1990) Biochim. Biophys. Acta 1355: 293-302”. Protein was determined using the BCA protein determination kit from Pierce (Rockford, Ill.) and BSA as calibration standard. SDS-PAGE was performed using precast gels (Novex, San Diego, Calif.; 10% Bis-Tris resolving gel, morpholinopropanesulfonic acid-SDS running buffer). Lumiimages were evaluated on a LumiImager using LumiImager software (Roche Diagnostics). Phosphor- and fluorescence images were processed and quantified using the Storm 860 PhosphorImager system (Molecular Dynamics, Gelsenkirchen, Germany). Figures were constructed using the ADOBE PHOTOSHOP software (Adobe Systems, Mountain View, Calif.).
FIG. 3: Selectivity of GPI-2350. […]

T1 sequence (P23795 31-614 isoform P23795-2 limits assumed): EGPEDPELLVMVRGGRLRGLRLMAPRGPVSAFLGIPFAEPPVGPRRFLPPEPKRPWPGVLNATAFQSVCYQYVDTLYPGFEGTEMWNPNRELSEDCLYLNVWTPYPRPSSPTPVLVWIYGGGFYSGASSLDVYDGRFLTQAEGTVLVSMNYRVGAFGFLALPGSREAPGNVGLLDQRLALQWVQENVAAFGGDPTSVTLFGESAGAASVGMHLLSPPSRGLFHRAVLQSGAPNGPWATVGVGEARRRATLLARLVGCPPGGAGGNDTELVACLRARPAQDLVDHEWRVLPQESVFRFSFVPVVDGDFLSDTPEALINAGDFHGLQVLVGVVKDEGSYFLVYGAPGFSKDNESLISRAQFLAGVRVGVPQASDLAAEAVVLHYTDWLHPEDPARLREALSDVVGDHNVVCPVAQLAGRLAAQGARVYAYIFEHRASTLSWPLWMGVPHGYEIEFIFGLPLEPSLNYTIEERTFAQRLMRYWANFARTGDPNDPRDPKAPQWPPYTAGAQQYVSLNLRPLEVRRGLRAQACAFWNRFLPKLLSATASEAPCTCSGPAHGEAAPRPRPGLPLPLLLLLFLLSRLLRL

With `CCCCCCCCCCCCP1(=O)O[C@@H]2[C@H](O)[C@@H](O)[C@H](O)[C@@H](O)[C@@H]2O1` (some centres unmarked) [GPI-2350, myo-inositol-1,2-cyclo-dodecylphosphonic acid] the IC50 [1] was 5 to 10 µM and the “effect on AChE” value (bovine AChE) was “not significantly affected”.
